Data as given in patent US9394306B2, “Pyrazoline dione derivatives as NADPH oxidase inhibitors” (GENKYOTEX SA, priority 2009, dated 2016).

Legend:
[1] = test system: NOX activities; experiment: Chemiluminescence (luminol) ROS measurement in cells; format: cell-based; conditions: 'usually'
Procedure: ROS was measured using the chemiluminescent probe luminol. Cells were cultured and plated as for Amplex Red except that the Amplex Red agent was replaced by 10 μg/mL luminol (Sigma 09235). Light emission was recorded continuously at 37° C. for 60 minutes using the luminescence function of the FluoStar Optima fluorescent plate reader. The mean of the four blank values was subtracted from each corrected value for each time point. NOX activities were expressed as % of the activity in control cells. Residual activity of DPI-treated cells was usually <10%.

[2] = test system: NOX activities; experiment: Nitroblue tetrazolium (NBT) superoxide test in cells; format: cell-based; conditions: DPI 10 μM, 'usually'
Procedure: Intracellular and extracellular superoxide was measured by a colorimetric technique using a quantitative nitroblue tetrazolium (NBT) test. SOD-inhibitable conversion of NBT to formazan, a fine blue precipitate, in the presence of superoxide anion was measured using Fluostar Optima spectrometer (BMG labtech). Following incubation with appropriate stimuli, cells were trypsinized (1× Trypsin-EDTA), collected by centrifugation, and washed with PBS to remove medium. 5×10^5 cells were plated on 48-well plates and incubated in Hank's balanced salt solution containing 0.5 mg/mL NBT with or without 800 U/mL SOD in the presence or absence of compounds according to the invention. As a control, DPI was included at a final concentration of 10 μM. After 2.5 h, cells were fixed and washed with methanol to remove non reduced NBT. The reduced formazan was then dissolved in 230 μl of 2M potassium hydroxide and in 280 μl of dimethylsulfoxide. The absorption was measured at 630 nm. For calculation, the absorbance at 630 nm was normalized for each individual well. The mean of the four blank values was subtracted from each corrected value for each time point. NOX activities were expressed as % of the activity in control cells. Residual activity of DPI-treated cells was usually <10%.

[3] = test system: T1, NOX activity; experiment: Amplex Red measurement of extracellular hydrogen peroxide (NOX activity) in DMSO-differentiated HL60 cells; format: cell-based, Human; conditions: DPI 10 μM, 'usually'
T1 construct: rows headed: Residual activity of DPI-treated cells (NOX activity, % of control cells); other: Amplex Red, DPI 10 μM, 'usually'
Procedure: Human acute myeloid leukemia cell line HL-60 was cultured in RPMI 1640 (Invitrogen) supplemented with 10% heat-inactivated calf serum, 2 mM glutamine, 100 U/mL penicillin (Sigma), and 100 μg streptomycin (Sigma) at 37° C. under a humidified atmosphere of 5% CO2. HL60 differentiation to the neutrophil phenotype was triggered by adding Me2SO (final concentration 1.25% v/v for 6 days) to the culture medium.
Extracellular hydrogen peroxide was measured using Amplex UltraRed (Molecular Probes). Cells were trypsinized (1× Trypsin-EDTA), collected by centrifugation, and resuspended in HBSS supplemented with 1% glucose. Cells were seeded into black 96-well plates at a density of 50,000 cells in 200 μl testing buffer (HBSS 1% glucose containing 0.005 U/mL horseradish peroxidase (Roche) and 50 μM Amplex Red in the presence or absence of compounds according to the invention. As a control, DPI was included at a final concentration of 10 μM The plates were placed in the fluorescent Optima Fluorescent plate reader and kept at 37° C. during 20 min. Fluorescence was measured for […] with excitation and emission wavelengths of 544 nm and 590 nm respectively. NOX activities were expressed as % of the activity in control cells. Residual activity of DPI-treated cells was usually <10%.

[4] = test system: NOX activities; experiment: H2DCF-DA ROS measurement in TGF-β stimulated HUVEC; format: cell-based, Human; conditions: 'usually'
Procedure: HUVEC are cultured in endothelial basal medium supplemented with hydrocortisone (1 μg/mL, CalbioChem), bovine brain extract (12 μg/mL), gentamicin (50 μg/mL, CalbioChem), amphotericin B (50 ng/mL, CalBioChem EGF (10 ng/mL, and 10% FCS until the fourth passage. When the fifth passage was started, cells were cultured with a lower concentration of FCS (2%) in the absence of EGF, if not indicated otherwise. All experiments were done with cells of the fifth passage. The cells were incubated with O×LDL (oxidized low-density lipoprotein) or its buffer as control for 24 h, before detection of O2^− formation.
HUVEC were plated on coverslips and made quiescent overnight in 0.5% BSA before stimulation with TGF-β. Cells were loaded for 10 minutes with 5 μM CM-H2DCFDA in phenol-red-free medium in the dark and then treated with TGF-β (R&D Systems) in the presence or absence of compounds according to the invention. Cells were then visualized by immunofluorescence microscopy after fixation and staining of the nuclei with DAPI or examined live using confocal microscopy. DCF fluorescence was visualized at an excitation wavelength of 488 nm and emission at 515 to 540 nm. […] For calculation, the absorbance at […] was normalized to absorbance at […] for each individual well. […] NOX activities were expressed as % of the activity in control cells. […]

[5] = test system: collagen deposition; experiment: Bleomycin-induced lung injury in mice, curative model (SIRCOL collagen assay); format: in vivo
Procedure: (§1) Control animals are subjected to the same protocol but received the same volume of intratracheal saline instead of BLM. Tracheal instillation is carried out under ketamin (80 mg/kg of body weight, i.p.) and xylazine (20 mg/kg de body weight, i.p.) anesthesia.
(§2) […] after endotracheal BLM or saline, the animals are killed by a lethal injection of sodium pentobarbital followed by exsanguination of abdominal aorta. Lungs are weighed and processed separately for biochemical (n=10 lungs per group) and histological studies (n=5 per group) as indicated below. The animals are randomly divided into four groups: control-saline (n=8) and control+BLM (n=15); Compound Dose 1+BLM (n=15) and Compound Dose 2+BLM (N=15). Treatments vehicle or compounds are administered for 5 weeks.
(§3) Mice are treated by daily oral administration of compound according to the invention or saline/control starting on day 0 for five weeks in the preventive model and starting on day 10 up to five weeks for the curative model. Whole lung accumulation of acid-soluble collagen is analyzed by Sircol assay.
The broad lines of the above protocol were followed. At day 0, animals received an intratracheal injection of 0.0125 UI of bleomycin (40 μl) to produce pulmonary lesions. Curative treatment group was orally administered a compound of the invention once a day for 3.5 weeks starting from day 10 to day 35. The animals are randomly divided into six groups: control-saline (n=8); 2 groups control+BLM (n=13); Compound 3 of the invention per os 40 mg/kg+BLM (n=13); Compound 3 of the invention per os 10 mg/kg+BLM (n=13) and Pirfenidone (AQCHEM, ref P1002) at 100 mg/kg per os+BLM (n=13). One bleomycin control group was stopped at day 10, the animals were killed and collagen levels were measured. For the other groups, 35 days after endotracheal BLM or saline, the animals are killed and lungs are processed as indicated above for quantification of collagen deposition and lung inflammation as indicated above. […]

[6] = test system: collagen deposition; experiment: Bleomycin-induced lung injury in mice, preventive model (SIRCOL collagen assay); format: in vivo; conditions: day 35
Procedure: as §1, §2, §3
The broad lines of the above protocol were followed. […] 35 days after endotracheal BLM or saline, the animals are killed and lungs are processed as indicated above for quantification of collagen deposition and lung inflammation by SIRCOL assay (TebuBio, ref S1000).

In the case of `c1ccc([I+]c2ccccc2)cc1` [DPI, Diphenyl-iodonium], the “Residual activity of DPI-treated cells (NOX activity, % of control cells)” value [1] is reported as under 10%, the “Residual activity of DPI-treated cells (NOX activity, % of control cells)” value [2] is reported as under 10% and the “Residual activity of DPI-treated cells (NOX activity, % of control cells)” value [3] is reported as under 10%. For the same molecule, the “Residual activity of DPI-treated cells (NOX activity, % of control cells)” value [4] was under 10%.
In the case of `O=c1c2c3n(c(=O)cc2[nH]n1-c1ccccc1Cl)CCCN(Cc1ccccc1)C3` [Compound 3, 10-benzyl-2-(2-chlorophenyl)-2,3,8,9,10,11-hexahydro-1H-pyrazolo[4′,3′:3,4]pyrido[1,2-a][1,4]diazepine-1,5(7H)-dione], the “inhibition of collagen deposition as compared to bleomycin control” value (“inhibition … compared to bleomycin control” below) ([5]; 10 mg/kg per os once a day from day 10 to day 35, mice) is reported as 64%, the “inhibition … compared to bleomycin control” value ([5]; 40 mg/kg per os once a day from day 10 to day 35, mice) is reported as 52% and the “inhibition … compared to bleomycin control” value ([6]; 40 mg/kg per os once a day from day 0 for five weeks) is reported as 46%.
For `Cc1ccc(=O)n(-c2ccccc2)c1` [Pirfenidone], the “inhibition … compared to bleomycin control” value ([5]; 100 mg/kg per os once a day from day 10 to day 35, mice) was 12% and the “inhibition … compared to bleomycin control” value ([6]; 100 mg/kg per os once a day from day 0 for five weeks) was 45%.
